Assay results as given in publication PMC12951562, “SH2scan: Mapping SH2 Domain-Ligand Binding Selectivity for Inhibitors and Degraders” (Journal of Medicinal Chemistry, 2026).
Non-standard residues stand in square brackets, D forms with d. Residues, ends and D or L forms follow the SMILES beside them. pY = N[C@@H](Cc1ccc(OP(=O)(O)O)cc1)C(=O)O

Legend:
Assay in all cases: biochemical
Format in all cases: binding
PLCG2(SH2dom.C-term.) = biological target: T1, PLCG2(SH2dom.C-term.) (Homo sapiens, UniProt P16885)
T1 construct: SH2dom.C-term. denotes SH2 domain closest to C-terminus of protein; made in house; host or cells: HEK293 (transient transfection, unpurified extract)
T1 sequence (P16885 646-735 limits assumed): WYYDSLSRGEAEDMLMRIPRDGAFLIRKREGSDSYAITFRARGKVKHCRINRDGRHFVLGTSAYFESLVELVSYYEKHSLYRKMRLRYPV

SHF = biological target: T2, SHF (Homo sapiens, UniProt Q7M4L6)
T2 construct: made in house; host or cells: HEK293 (transient transfection), unpurified extract
T2 sequence (Q7M4L6 1-423): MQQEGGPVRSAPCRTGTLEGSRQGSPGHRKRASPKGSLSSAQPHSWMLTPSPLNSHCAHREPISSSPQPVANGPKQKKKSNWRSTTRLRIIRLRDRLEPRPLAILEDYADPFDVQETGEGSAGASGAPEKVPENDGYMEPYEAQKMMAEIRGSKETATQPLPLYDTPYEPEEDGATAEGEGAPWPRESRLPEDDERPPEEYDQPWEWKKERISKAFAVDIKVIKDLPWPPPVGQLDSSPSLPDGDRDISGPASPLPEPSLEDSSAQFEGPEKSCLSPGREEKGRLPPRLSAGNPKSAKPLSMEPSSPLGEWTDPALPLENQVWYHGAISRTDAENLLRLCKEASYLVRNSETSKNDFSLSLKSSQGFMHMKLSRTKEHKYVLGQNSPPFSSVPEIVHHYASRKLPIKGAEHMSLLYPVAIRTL

SHC1 = biological target: T3, SHC1 (Homo sapiens, UniProt P29353)
T3 construct: made in house; host or cells: HEK293 (transient transfection), unpurified extract
T3 sequence (P29353 1-583): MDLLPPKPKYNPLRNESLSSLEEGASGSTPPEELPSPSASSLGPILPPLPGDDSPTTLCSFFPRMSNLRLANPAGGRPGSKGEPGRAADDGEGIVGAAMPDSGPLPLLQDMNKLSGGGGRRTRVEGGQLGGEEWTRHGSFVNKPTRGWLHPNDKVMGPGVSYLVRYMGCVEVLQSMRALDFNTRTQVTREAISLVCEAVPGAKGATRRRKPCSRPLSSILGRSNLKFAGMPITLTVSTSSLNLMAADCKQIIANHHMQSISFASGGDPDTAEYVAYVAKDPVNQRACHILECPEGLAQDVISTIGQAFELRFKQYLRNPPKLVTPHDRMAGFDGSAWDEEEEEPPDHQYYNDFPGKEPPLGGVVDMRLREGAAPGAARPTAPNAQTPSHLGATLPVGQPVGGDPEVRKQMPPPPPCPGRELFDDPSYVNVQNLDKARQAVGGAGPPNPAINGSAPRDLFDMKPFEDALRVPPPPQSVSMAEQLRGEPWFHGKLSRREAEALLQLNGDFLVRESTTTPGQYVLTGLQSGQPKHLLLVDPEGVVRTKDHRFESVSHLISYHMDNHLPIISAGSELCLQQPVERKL

SHC3 = biological target: T4, SHC3 (Homo sapiens, UniProt Q92529)
T4 construct: made in house; host or cells: HEK293 (transient transfection), unpurified extract
T4 sequence (Q92529 1-594): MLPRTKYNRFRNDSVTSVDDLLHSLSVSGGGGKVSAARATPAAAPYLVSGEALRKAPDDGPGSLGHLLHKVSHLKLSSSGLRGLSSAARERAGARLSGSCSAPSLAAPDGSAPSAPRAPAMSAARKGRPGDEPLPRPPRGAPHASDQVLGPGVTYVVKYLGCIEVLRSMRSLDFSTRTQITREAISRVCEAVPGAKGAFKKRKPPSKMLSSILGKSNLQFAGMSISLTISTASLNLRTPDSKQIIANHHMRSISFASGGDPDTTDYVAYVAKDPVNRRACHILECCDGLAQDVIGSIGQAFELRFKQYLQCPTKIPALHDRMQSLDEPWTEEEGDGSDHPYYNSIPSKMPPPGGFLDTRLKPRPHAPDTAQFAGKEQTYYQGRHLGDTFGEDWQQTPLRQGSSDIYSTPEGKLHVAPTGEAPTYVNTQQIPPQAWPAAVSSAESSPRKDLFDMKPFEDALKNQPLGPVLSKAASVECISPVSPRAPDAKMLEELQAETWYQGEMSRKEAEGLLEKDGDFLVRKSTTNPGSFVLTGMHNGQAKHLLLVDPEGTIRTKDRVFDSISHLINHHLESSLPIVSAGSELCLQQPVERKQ

SHC2 = biological target: T5, SHC2 (Homo sapiens, UniProt P98077)
T5 construct: made in house; host or cells: HEK293 (transient transfection), unpurified extract
T5 sequence (P98077 1-582): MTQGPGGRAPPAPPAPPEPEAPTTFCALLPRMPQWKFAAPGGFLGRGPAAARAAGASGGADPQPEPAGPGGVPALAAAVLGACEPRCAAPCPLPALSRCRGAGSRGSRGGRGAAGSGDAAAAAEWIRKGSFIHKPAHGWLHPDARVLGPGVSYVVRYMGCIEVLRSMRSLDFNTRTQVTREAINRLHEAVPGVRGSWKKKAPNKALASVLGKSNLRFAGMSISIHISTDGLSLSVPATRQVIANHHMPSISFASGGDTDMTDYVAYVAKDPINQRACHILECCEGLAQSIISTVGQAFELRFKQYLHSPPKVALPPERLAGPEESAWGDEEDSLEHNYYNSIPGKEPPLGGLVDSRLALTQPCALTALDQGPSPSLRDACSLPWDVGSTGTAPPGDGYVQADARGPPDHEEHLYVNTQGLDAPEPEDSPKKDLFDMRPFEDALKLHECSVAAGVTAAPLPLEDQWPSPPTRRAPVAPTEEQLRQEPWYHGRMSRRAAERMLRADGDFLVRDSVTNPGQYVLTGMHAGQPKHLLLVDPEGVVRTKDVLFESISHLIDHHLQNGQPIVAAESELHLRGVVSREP

SHC4 = biological target: T6, SHC4 (Homo sapiens, UniProt Q6S5L8)
T6 construct: made in house; host or cells: HEK293 (transient transfection), unpurified extract
T6 sequence (Q6S5L8 1-630): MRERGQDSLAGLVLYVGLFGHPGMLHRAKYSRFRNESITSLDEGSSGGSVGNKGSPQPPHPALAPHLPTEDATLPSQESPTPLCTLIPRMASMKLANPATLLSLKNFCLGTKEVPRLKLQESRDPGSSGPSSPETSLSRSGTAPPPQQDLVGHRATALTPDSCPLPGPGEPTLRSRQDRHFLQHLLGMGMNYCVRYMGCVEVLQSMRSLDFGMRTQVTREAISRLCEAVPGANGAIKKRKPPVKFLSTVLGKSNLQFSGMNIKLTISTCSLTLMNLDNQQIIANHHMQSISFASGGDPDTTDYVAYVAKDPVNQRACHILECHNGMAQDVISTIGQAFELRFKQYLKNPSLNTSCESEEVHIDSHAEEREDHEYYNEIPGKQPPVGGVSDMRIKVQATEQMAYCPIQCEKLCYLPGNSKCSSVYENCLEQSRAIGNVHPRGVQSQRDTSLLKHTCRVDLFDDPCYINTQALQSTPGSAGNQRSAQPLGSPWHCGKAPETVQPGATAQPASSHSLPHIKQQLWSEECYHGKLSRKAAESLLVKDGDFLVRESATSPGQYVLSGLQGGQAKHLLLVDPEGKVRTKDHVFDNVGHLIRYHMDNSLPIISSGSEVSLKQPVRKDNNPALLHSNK

SOCS7 = biological target: T7, SOCS7 (Homo sapiens, UniProt O14512)
T7 construct: made in house; host or cells: HEK293 (transient transfection), unpurified extract
T7 sequence (O14512 1-581): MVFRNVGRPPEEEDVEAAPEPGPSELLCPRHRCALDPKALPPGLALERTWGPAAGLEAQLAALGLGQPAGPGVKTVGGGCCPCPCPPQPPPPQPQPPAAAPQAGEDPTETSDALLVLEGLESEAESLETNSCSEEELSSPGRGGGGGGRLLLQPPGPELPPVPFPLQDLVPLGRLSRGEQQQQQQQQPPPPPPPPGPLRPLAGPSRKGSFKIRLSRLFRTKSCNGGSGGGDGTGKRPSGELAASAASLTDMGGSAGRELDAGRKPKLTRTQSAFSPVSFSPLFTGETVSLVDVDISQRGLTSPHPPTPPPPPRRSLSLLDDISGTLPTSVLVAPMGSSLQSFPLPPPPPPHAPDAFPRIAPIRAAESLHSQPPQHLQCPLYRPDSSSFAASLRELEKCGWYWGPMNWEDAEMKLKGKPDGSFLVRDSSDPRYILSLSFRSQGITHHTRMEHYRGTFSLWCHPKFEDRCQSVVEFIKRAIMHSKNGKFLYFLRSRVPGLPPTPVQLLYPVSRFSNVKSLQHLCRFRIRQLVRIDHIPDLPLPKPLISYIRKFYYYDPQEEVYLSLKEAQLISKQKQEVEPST

SOCS6 = biological target: T8, SOCS6 (Homo sapiens, UniProt O14544)
T8 construct: made in house; host or cells: HEK293 (transient transfection), unpurified extract
T8 sequence (O14544 1-535): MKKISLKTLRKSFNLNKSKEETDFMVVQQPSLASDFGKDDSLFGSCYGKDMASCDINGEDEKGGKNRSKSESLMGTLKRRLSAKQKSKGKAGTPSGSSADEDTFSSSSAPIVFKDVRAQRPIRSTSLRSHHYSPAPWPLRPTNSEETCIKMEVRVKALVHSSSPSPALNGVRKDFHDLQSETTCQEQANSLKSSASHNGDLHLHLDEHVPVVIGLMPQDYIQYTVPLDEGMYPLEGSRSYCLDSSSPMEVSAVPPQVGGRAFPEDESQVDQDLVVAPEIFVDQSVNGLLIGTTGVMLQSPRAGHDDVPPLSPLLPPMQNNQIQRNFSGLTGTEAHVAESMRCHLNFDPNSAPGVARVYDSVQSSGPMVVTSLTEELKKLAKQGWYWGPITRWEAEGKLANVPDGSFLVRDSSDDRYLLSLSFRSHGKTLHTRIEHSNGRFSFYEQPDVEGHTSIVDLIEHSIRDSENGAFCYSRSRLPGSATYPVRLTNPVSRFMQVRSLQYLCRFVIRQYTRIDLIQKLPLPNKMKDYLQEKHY

SOCS2 = biological target: T9, SOCS2 (Homo sapiens, UniProt O14508)
T9 construct: made in house; host or cells: HEK293 (transient transfection), unpurified extract
T9 sequence (O14508 1-198): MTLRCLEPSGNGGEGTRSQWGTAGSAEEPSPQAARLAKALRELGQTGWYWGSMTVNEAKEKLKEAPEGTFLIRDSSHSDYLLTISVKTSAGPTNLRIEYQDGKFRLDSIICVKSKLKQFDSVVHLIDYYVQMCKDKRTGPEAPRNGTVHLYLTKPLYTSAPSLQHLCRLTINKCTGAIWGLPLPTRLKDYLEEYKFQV

Work on `CC[C@H](C)[C@H](NC(=O)[C@@H](NC(=O)[C@H](Cc1ccc(OP(=O)(O)O)cc1)NC(=O)[C@H](CO)NC(=O)[C@H](CCCNC(=N)N)NC(=O)[C@@H](NC(=O)[C@H](CO)NC(=O)[C@H](CCC(=O)O)NC(=O)[C@H](CCCCN)NC(=O)[C@H](CCCCN)NC(=O)[C@H](CCCCN)NC(=O)[C@H](CCCCN)NC(C)=O)[C@@H](C)O)C(C)C)C(=O)N[C@@H](CC(C)C)C(=O)N[C@@H](CO)C(=O)N[C@@H](Cc1ccccc1)C(=O)N[C@@H](CCC(=O)O)C(=O)N[C@@H](CC(N)=O)C(=O)N[C@@H](CC(N)=O)C(=O)NCC(N)=O` (Ac-KKKKESTRS[pY]VILSFENNG-NH2) yielded a Kd (PLCG2(SH2dom.C-term.)) of 0.0109 ± 0.00709 µM and a Kd (SHF) of 1.47 ± 0.88 µM.

With `CC(=O)N[C@@H](CCC(=O)O)C(=O)N[C@@H](CC(N)=O)C(=O)N[C@@H](C)C(=O)N[C@@H](CCC(=O)O)C(=O)N[C@@H](Cc1ccc(OP(=O)(O)O)cc1)C(=O)N[C@@H](CC(C)C)C(=O)N[C@@H](CCCNC(=N)N)C(=O)N[C@H](C(=O)N[C@@H](C)C(N)=O)C(C)C` [Ac-ENAEpYLRVA-NH2] (Ac-ENAE[pY]LRVA-NH2) the Kd (SHC1) was 11 ± 1.26 µM, the Kd (SHC3) was 3.78 ± 0.472 µM and the Kd (SHC2) was 4.39 ± 0.413 µM. For the same compound, the Kd (SHC4) was 6.63 ± 0.773 µM.

Work on `CC[C@H](C)[C@H](NC(=O)[C@H](Cc1ccc(O)cc1)NC(=O)[C@@H](NC(=O)[C@H](Cc1ccc(OP(=O)(O)O)cc1)NC(=O)[C@H](CC(N)=O)NC(=O)[C@H](CC(N)=O)NC(=O)CNC(=O)[C@H](CC(N)=O)NC(C)=O)C(C)C)C(=O)N[C@@H](CC(=O)O)C(=O)N1CCC[C@H]1C(=O)N[C@H](C(N)=O)[C@@H](C)O` [Ac-NGNNpYVYIDPT-NH2] yielded a Kd (SOCS7) of 11.7 ± 0.822 µM, a Kd (SOCS6) of 0.0206 ± 0.00433 µM and a Kd (SOCS2) of 4.2 ± 0.739 µM.
